Experimental data as given in PMC7447632, “Highly functionalized β-lactams and 2-ketopiperazines as TRPM8 antagonists with antiallodynic activity” (Scientific Reports, 2020).
Counter-ions that a name gives are not always drawn. Like-named read-outs stand apart in the source and are kept apart here.

Experiments:
Type in all cases: cell-based
rat TRPM8 channel = molecular target: T1, rat TRPM8 channel (Rattus norvegicus, UniProt Q8R455); experiment: Ca2+ microfluorometry, menthol-induced Ca2+ influx in HEK293 cells expressing rat TRPM8; conditions: 100 µM menthol, HEK-rTRPM8; for % Blockade 5 µM: 5 µM compound; for % Blockade 50 µM: 50 µM compound; for IC50: Ca2+ microfluorometry
T1 construct: expressed in transfected cells; host or cells: HEK293 (stably transfected)
T1 sequence (Q8R455 whole entry): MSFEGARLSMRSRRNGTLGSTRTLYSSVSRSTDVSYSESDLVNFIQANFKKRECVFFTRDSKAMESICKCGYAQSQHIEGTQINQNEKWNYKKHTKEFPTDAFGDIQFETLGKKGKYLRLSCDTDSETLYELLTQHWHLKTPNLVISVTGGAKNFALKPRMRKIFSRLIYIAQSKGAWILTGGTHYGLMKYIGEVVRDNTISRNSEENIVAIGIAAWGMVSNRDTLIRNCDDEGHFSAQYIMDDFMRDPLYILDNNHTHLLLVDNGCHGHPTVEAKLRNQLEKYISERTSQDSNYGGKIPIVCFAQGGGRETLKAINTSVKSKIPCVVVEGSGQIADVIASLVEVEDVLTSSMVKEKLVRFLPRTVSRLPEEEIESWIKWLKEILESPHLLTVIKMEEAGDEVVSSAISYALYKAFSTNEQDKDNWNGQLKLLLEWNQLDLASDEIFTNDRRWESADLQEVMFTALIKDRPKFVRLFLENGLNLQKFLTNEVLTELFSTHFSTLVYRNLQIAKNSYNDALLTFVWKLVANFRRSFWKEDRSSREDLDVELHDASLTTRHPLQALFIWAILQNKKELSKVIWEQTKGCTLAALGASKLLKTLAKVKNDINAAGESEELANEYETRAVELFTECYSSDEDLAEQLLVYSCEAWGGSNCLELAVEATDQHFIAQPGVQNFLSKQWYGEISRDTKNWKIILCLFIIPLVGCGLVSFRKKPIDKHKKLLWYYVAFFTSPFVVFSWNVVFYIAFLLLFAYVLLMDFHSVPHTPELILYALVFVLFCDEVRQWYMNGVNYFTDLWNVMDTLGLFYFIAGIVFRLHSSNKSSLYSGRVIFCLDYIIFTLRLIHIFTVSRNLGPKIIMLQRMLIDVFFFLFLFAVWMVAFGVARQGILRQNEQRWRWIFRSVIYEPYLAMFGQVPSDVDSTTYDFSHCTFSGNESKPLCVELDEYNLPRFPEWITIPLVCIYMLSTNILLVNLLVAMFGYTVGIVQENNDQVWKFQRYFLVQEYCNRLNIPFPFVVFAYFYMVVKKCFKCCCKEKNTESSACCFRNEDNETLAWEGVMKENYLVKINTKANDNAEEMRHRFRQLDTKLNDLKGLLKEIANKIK
Description: The ability to inhibit menthol-induced Ca^2+ intracellular influx into the cytosol on HEK293 cells heterologously expressing the rat TRPM8 channel was measured and compared to that of AMTB, a well-known TRPM8 antagonist. Representative recordings of fluorescence obtained in microfluorometry experiments for selected compounds are in Supplementary Fig. S3.
(§1) Human embryonic kidney cell line (HEK) stably transfected with rTRPM8 or h-TRPV1 were used as previously described. Briefly, cells were seeded in 96-well plates at a cell density of 30,000 cells 2 days before treatment. Buffer used was HBBS (in mM): 138 NaCl, 5.33 KCl, 1.26 CaCl2, 0.5 MgCl-6H2O, 0.4 MgSO4-7H2O, 4 NaHCO3 0.44 KH2PO4, 0.3 Na2HPO4, pH 7.4. The day of treatment the medium was replaced with 100 µL of the dye loading solution Fluo-4 NW supplemented with probenecid 2.5 mM. After incubation, plates were transferred to a fluorescence plate reader (Polastar BMG). In the experimental protocol, the baseline fluorescence was recorded ([…]) for 3 cycles. After, vehicle, compound at different concentrations and the corresponding antagonist, 10 µM AMTB for TRPM8 or 10 µM Ruthenium Red for TRPV1 were added to the well. Fluorescence intensity was recorded during 7 cycles more. Finally, the agonist 100 µM menthol for TRPM8 or 1 µM capsaicin for TRPV1 was added and fluorescence intensity was recorded during 10 cycles more.
The degree of inhibition of TRPM8 channel gating was calculated by comparison to calcium increase signal elicited by test substances and menthol at 100 µM. Decrease of menthol signal was expressed as percentage of inhibition (%). All data are expressed as mean ± standard deviation (SD). Each condition was assessed by triplicate (n = 3) in 3 independent experiments (N = 3). Z-factor was calculated in each assay using the following equation: […]. In all the experiments Z-factor was ≥ 0.5. To calculate IC50, normalized responses (%) versus log [µM] were adjusted to a non-linear fit with variable slope, a four-parameter dose–response curve following curve Y = 100/(1 + 10^((Log IC50-X)*HillSlope)) where […].

hTRPV1 channels = molecular target: T2, hTRPV1 channels (Homo sapiens, UniProt Q8NER1); experiment: Ca2+ microfluorometry in HEK cells expressing hTRPV1 (capsaicin); conditions: 1 µM capsaicin; for TRPV1 Blockade (%) 5 µM: 5 µM compound; for TRPV1 Blockade (%) 50 µM: 50 µM compound
T2 construct: expressed in transfected cells; host or cells: HEK (stably transfected)
T2 sequence (Q8NER1 whole entry): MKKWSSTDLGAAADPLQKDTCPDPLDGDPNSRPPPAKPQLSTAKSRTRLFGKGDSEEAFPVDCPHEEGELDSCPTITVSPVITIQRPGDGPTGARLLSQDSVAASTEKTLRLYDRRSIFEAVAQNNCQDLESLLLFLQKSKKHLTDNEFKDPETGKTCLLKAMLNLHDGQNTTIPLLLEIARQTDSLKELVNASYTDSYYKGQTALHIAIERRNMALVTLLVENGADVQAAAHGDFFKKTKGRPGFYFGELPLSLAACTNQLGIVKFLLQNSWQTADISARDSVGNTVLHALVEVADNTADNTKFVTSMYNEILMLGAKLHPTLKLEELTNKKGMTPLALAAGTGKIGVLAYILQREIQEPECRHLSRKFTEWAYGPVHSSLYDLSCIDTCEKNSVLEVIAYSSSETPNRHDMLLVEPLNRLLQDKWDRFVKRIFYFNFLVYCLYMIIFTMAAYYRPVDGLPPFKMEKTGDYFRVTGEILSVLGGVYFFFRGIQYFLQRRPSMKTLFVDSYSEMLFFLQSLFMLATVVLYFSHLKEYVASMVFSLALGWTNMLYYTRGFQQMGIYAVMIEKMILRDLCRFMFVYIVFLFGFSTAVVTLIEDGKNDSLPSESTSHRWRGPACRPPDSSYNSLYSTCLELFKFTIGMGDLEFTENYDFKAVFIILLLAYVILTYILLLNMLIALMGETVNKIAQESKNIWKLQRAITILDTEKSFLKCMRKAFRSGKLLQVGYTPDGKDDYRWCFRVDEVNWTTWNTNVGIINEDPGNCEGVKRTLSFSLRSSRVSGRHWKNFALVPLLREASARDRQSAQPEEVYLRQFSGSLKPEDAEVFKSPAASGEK
Description: β-Lactam and 2-ketopiperazine derivatives were also assayed for their activity in cell expressing hTRPV1 channels. No significant antagonist activity was measured for any derivatives within both chemotypes (Supplementary Tables S1, S2, and Fig. S3), indicating their selectivity for TRPM8 channels.
as §1
Table S1. Activity at hTRPV1 of β–lactams derived from phenylalaninol conjugates
Compd. Isomer Isomer TRPV1 Blockade (%)
Table S2. Activity at hTRPV1 of 2-ketopiperazines derived from phenylalaninol

[1] = system: MDA-MB-231 (breast adenocarcinoma); experiment: SRB cytotoxicity assay, MDA-MB-231; conditions: for TGI MDA-MB-231: total growth inhibition; for GI50 / CC50: Homo sapiens; for CC50: read-out: LC50 MDA-MB-231
Description: (§2) Human tumor cell lines used in this study were purchased from the ATCC. A-549 (CCL-185), lung carcinoma; HT-29 (HTB-38), colorectal adenocarcinoma; MDA-MB-231 (HTB-26), breast adenocarcinoma; PSN1, pancreas adenocarcinoma.
(§3) All cell lines were maintained in DMEM (Dulbecco’s Modified Eagle's Medium) culture medium supplemented with 10% FBS (Fetal Bovine Serum), 100 Units/mL penicillin/streptomycin at 37 °C, 5% CO2 and 95% humidity.
(§4) Triplicate cultures were incubated for 72 h in the presence or absence of test compounds in dose–response curves (10 concentrations, typically ranging from 10 to 0.0026 µg/mL). A colorimetric assay using sulforhodamine B (SRB) was adapted for quantitative measurement of cell growth and cytotoxicity. A more detailed information on this assay is provides in the supplementary information. GI50 is the compound concentration that produces 50% inhibition on cell growth as compared to control cells.
(§5) In vitro bioassays for the detection of antitumor activity
(§6) The aim of this assay is to evaluate the in vitro cytostatic (ability to delay or arrest tumor cell growth) or cytotoxic (ability to kill tumor cells) activity of the samples […]
(§7) Name Nº ATCC Species Tissue Characteristics
(§8) A549 CCL-185 human lung lung carcinoma (NSCLC)
(§9) HT29 HTB-38 human colon colorectal adenocarcinoma
(§10) MDA-MB-231 HTB-26 human breast breast adenocarcinoma
(§11) PSN1 CRM-CRL-3211 human pancreas pancreas adenocarcinoma […]
(§12) A colorimetric assay, using Sulforhodamine B (SRB) reaction has been adapted to provide a quantitative measurement of cell growth and viability (following the technique described by Skehan et al. J. Natl. Cancer Inst. 1990, 82, 1107-1112 […]
(§13) This form of assay employs 96-well cell culture microplates following the standards of the American National Standards Institute and the Society for Laboratory […]
(§14) used in this study were obtained from the American Type Culture Collection (ATCC) and derive from different types of human cancer.
(§15) A549, HT29, MDA-MB-231 and PSN1 cells were maintained in Dulbecco’s
(§16) Modified Eagle Medium (DMEM) supplemented with 10% Fetal Bovine Serum (FBS), 2mM L-glutamine, 100 U/mL penicillin, and 100 U/mL streptomycin at 37 °C, 5% CO2 and 98% humidity. For the experiments, cells were harvested from subconfluent cultures using trypsinization and resuspended in fresh medium before counting and […]
(§17) A549, HT29, MDA-MB-231 and PSN1 cells were seeded in 96 well microtiter plates, at 5000 cells per well in aliquots of 150 µL, and allowed to attach to the plate surface for 18 hours (overnight) in drug free medium. After that, one control (untreated) plate of each cell line was fixed (as described below) and used for time zero reference value. Culture plates were then treated with test compounds (50 µL aliquots of 4X stock […]
(§18) solutions in complete culture medium plus 4% DMSO) using ten 2/5 serial dilutions (concentrations ranging from 10 to 0.003 µg/mL) and triplicate cultures (1% final concentration in DMSO). After 72 hours treatment, the antitumor effect was measured by using the SRB methodology: Briefly, cells were washed twice with PBS, fixed for 15 min in 1% glutaraldehyde solution at room temperature, rinsed twice in PBS, and stained in 0.4% SRB solution for 30 min at room temperature. Cells were then rinsed several times with 1% acetic acid solution and air-dried at room temperature. SRB was then extracted in 10 mM trizma base solution and the absorbance measured in an automated spectrophotometric plate reader at 490 nm.
(§19) Effects on cell growth and survival were estimated by applying the NCI algorithm (Boyd MR and Paull KD. Drug Dev. Res. 1995, 34, 91-109, DOI:10.1002/ddr.430340203). The values obtained in triplicate cultures were fitted by nonlinear regression to a four-parameters logistic curve by nonlinear regression analysis. . Using the absorbance measurements [time zero, (Tz), control growth, (C), and test growth in the presence of drug at the ten concentration levels (Ti)], the […]

[2] = system: HT29 (colorectal adenocarcinoma); experiment: SRB cytotoxicity assay, HT29; conditions: for TGI HT29: total growth inhibition; for GI50 / CC50: Homo sapiens; for CC50: read-out: LC50 HT29
Description: as §2, §3, §4, §5, §6, §7, §8, §9, §10, §11, §12, §13, §14, §15, §16, §17, §18, §19

[3] = system: A549 (lung carcinoma, NSCLC); experiment: SRB cytotoxicity assay, A549; conditions: for TGI A549: total growth inhibition; for GI50 / CC50: Homo sapiens; for CC50: read-out: LC50 A549
Description: as §2, §3, §4, §5, §6, §7, §8, §9, §10, §11, §12, §13, §14, §15, §16, §17, §18, §19

[4] = system: PSN1 (pancreas adenocarcinoma); experiment: SRB cytotoxicity assay, PSN1; conditions: for TGI PSN1: total growth inhibition; for GI50 / CC50: Homo sapiens; for CC50: read-out: LC50 PSN1
Description: as §2, §3, §4, §5, §6, §7, §8, §9, §10, §11, §12, §13, §14, §15, §16, §17, §18, §19

Compound	% Blockade 5 µM (rat TRPM8 channel) [%]	% Blockade 50 µM (rat TRPM8 channel) [%]	IC50 (rat TRPM8 channel) [µM]	TRPV1 Blockade (%) 5 µM (hTRPV1 channels) [%]	TRPV1 Blockade (%) 50 µM (hTRPV1 channels) [%]	other results
O=C(OCc1ccccc1)C(Cc1ccccc1)N1C[C@H](Cc2ccccc2)N(C(=O)OCc2ccccc2)CC1=O (stereo partly shown) [Compound 13ab]	48.9 ± 6.2	102.1 ± 7.7	–	7.2±3.8	8.1±3.4	TGI MDA-MB-231 ([1]; 72 h, SRB, unit inferred): > 17.8 µM; GI50 ([1]; MDA-MB-231, 72 h, SRB): > 17.8 µM; CC50 ([1]; MDA-MB-231, 72 h, SRB, unit inferred): > 17.8 µM; TGI HT29 ([2]; 72 h, SRB, unit inferred): > 17.8 µM; GI50 ([2]; HT-29, 72 h, SRB): > 17.8 µM; CC50 ([2]; HT-29, 72 h, SRB, unit inferred): > 17.8 µM; TGI A549 ([3]; 72 h, SRB, unit inferred): > 17.8 µM; GI50 ([3]; A549, 72 h, SRB): > 17.8 µM; CC50 ([3]; A549, 72 h, SRB, unit inferred): > 17.8 µM; TGI PSN1 ([4]; 72 h, SRB, unit inferred): > 17.8 µM; GI50 ([4]; PSN1, 72 h, SRB): > 17.8 µM; CC50 ([4]; PSN1, 72 h, SRB, unit inferred): > 17.8 µM
COC(=O)C(Cc1ccccc1)N1C[C@H](Cc2ccccc2)N(C(=O)OCc2ccccc2)CC1=O (stereo partly shown) [Compound 20ab]	22.3 ± 5.5	61.0 ± 5.6	18.8 ± 1.7	12.2±3.1	19.3±1.2	–
CC1C(=O)N(C[C@H](Cc2ccccc2)NC(=O)OCc2ccccc2)[C@@]1(Cc1ccccc1)C(=O)OCc1ccccc1 (stereo partly shown) [Compound 25ab]	68.2 ± 5.6	89.2 ± 9.2	3.9 ± 1.9	3.4±1.7	4.3±1.1	–
C[C@H]1C(=O)N(C(Cc2ccccc2)C(=O)OCc2ccccc2)C[C@@H](Cc2ccccc2)N1C(=O)OCc1ccccc1 (stereo partly shown) [Compound 32ab]	47.4 ± 6.8	115.1 ± 4.5	17.4 ± 1.6	4.1±2.3	6.3±2.3	–
CC(C(=O)OCc1ccccc1)N1CC(Cc2ccccc2)N(C(=O)OCc2ccccc2)CC1=O (stereo not shown) [Compound 38ab]	66.0 ± 3.3	105.5 ± 3.2	2.5 ± 1.3	–	–	–
C[C@@H]1C(=O)N(C[C@@H](Cc2ccccc2)NC(=O)OCc2ccccc2)[C@]1(C)C(=O)OCc1ccccc1 [Compound 39a]	46.6 ± 11.1	100.4 ± 3.5	6.2 ± 1.1	2.6±0.9	3.2±2.777	–
COc1cccc2c1C(=O)c1c(O)c3c(c(O)c1C2=O)C[C@@](O)(C(=O)CO)C[C@@H]3O[C@H]1C[C@H](N)[C@H](O)[C@H](C)O1 [Doxorubicin.HCl, reference compound]	–	–	–	–	–	TGI MDA-MB-231 ([1]; 72 h, SRB, unit inferred): 0.41 µM; CC50 ([1]; MDA-MB-231, 72 h): 0.98 µM; GI50 ([1]; MDA-MB-231, 72 h, SRB): 0.17 µM; TGI HT29 ([2]; 72 h, SRB, unit inferred): 0.64 µM; CC50 ([2]; HT-29, 72 h): > 17.2 µM; GI50 ([2]; HT-29, 72 h, SRB): 0.19 µM; TGI A549 ([3]; 72 h, SRB, unit inferred): 0.64 µM; CC50 ([3]; A549, 72 h): 2.93 µM; GI50 ([3]; A549, 72 h, SRB): 0.24 µM; TGI PSN1 ([4]; 72 h, SRB, unit inferred): 0.48 µM; CC50 ([4]; PSN1, 72 h): 1.62 µM; GI50 ([4]; PSN1, 72 h, SRB): 0.17 µM

Continued by falling IC50 (rat TRPM8 channel), values first:

% Blockade 5 µM (rat TRPM8 channel) [%]	% Blockade 50 µM (rat TRPM8 channel) [%]	IC50 (rat TRPM8 channel) [µM]	TRPV1 Blockade (%) 5 µM (hTRPV1 channels) [%]	TRPV1 Blockade (%) 50 µM (hTRPV1 channels) [%]	Compound	other results
93.5 ± 3.4	102.4 ± 1.5	2.4	6.2±1.8	7.3±3.2	C[C@H]1C(=O)N(C(Cc2ccccc2)C(=O)OCc2ccccc2)C[C@H](Cc2ccccc2)N1C(=O)OCc1ccccc1 (stereo partly shown) [Compound 26ab]	–
70.0 ± 6.8	92.5 ± 4.3	2 ± 1.5	6.2±3.1	11.8±1.8	O=C(OCc1ccccc1)C(Cc1ccccc1)N1C[C@H](Cc2ccccc2)N(C(=O)OCc2ccccc2)CC1=O (stereo partly shown) [Compound 21ab]	–
91.0 ± 4.3	105.0 ± 5.5	1.6 ± 1.3	5.7±2.3	12.1±1.3	CC1C(=O)N(C[C@@H](Cc2ccccc2)NC(=O)OCc2ccccc2)[C@@]1(Cc1ccccc1)C(=O)OCc1ccccc1 (stereo partly shown) [Compound 31ab]	–
92.3 ± 6.2	100.0 ± 3.1	1.5 ± 1.2	9.2±1.4	15.3±2.8	O=C(N[C@@H](Cc1ccccc1)CN1C(=O)CC1(Cc1ccccc1)C(=O)OCc1ccccc1)OCc1ccccc1 (stereo partly shown) [Compound 12ab]	–
91.0 ± 4.3	103 ± 2.7	1.2 ± 1	4.1±2.4	8.7±3.5	O=C(N[C@H](Cc1ccccc1)CN1C(=O)CC1(Cc1ccccc1)C(=O)OCc1ccccc1)OCc1ccccc1 (stereo partly shown) [Compound 14ab]	–
79.1 ± 3.3	107.9 ± 2.5	0.8 ± 1.2	–	–	CC(C(=O)OCc1ccccc1)N1C[C@@H](Cc2ccccc2)N(C(=O)OCc2ccccc2)[C@H](C)C1=O (stereo partly shown) [Compound 40ab]	–
